Reference: patent publication US6465494B1, “Methods for treatment of cystic fibrosis” (Cell Pathways, Inc., priority 2001, dated 2002)
Entries after “also recorded” stand apart in the source; their conditions may differ. Counter-ions that a name gives are not always drawn.

Legend:
[1] = 28-day study in rats; type: in vivo
Experimental: A 28-day study in rats was also carried out at 0, 50, 500 and 2000 mg/kg/day.

[2] = target: T1, GST-cGB-PDE5 fusion protein (Homo sapiens, UniProt O76074); experiment: cGMP binding assay with GST-cGB-PDE5 fusion protein; details: 3H-cGMP 2 μM, 22° C., 1 hour
T1 construct: made in house; host or cells: E. coli BL21 (DE3)
Text: RT-PCR method is used to obtain the cGB domain of PDE5 with forward and reverse primers designed from bovine PDE5A cDNA sequence (McAllister-Lucas L. M et al, J. Biol. Chem. 268, 22863-22873, 1993) and the selection among PDE 1-10 families. 5′-3′, Inc. kits for total RNA followed by oligo (dT) column purification of mRNA are used with HT-29 cells. […] It is then cloned into pGEX-5X-3 glutathione-S-transferase (GST) fusion vector (Pharmacia Biotech )with tac promoter, and EcoRI and XhoI cut sites. The fusion vector is then transfected into E. Coli BL21 (DE3) bacteria (Invitrogen). The transfected BL21 bacteria is grown to log phase, and then IPTG is added as an inducer. The induction is carried at 20° C. for 24 hrs. The bacteria are harvested and lysed. The soluble cell lysate is incubated with GSH conjugated Sepharose 4B (GSH-Sepharose 4B). The GST-cGB-PDE5 fusion protein can bind to the GSH-Sepharose beads, and the other proteins are washed off from beads with excessive cold PBS.
Then, the mixture is transferred to Brandel MB-24 cell harvester with GF/B as the filter membrane followed by 2 washes with 10 mL of cold 5 mM potassium buffer(pH 6.8). The membranes are then cut out and transferred to scintillation vials followed by the addition of 1 mL of H2O and 6 mL of Ready Safe™ liquid scintillation cocktail to each vial. The vials are counted on a Beckman LS 6500 scintillation counter.
The quenching by filter membrane or other debris are also calibrated.

[3] = system: U937 cells; experiment: apoptosis induction of U937 cells (active caspase 3 immunofluorescence); type: cell-based; details: 1 μM, 24 hours, hydrochloride
Experimental: The U937 monocyte cell line was derived from a histocytic lymphoma and can be driven to differentiate into an ‘activated macrophage like’ state by treatment with 5nM phorbal ester (TPA). Treated U937 cells become adherent, increase their cytoplasmic volume and express macrophage-specific cell surface markers. The presence and level of PDE2 and 5 mRNA in both differentiated and non-differentiated U937 cells was confirmed by performing RT-PCR experiments on total RNA.
U937 cells (from ATCC Rockville, Md.) were grown in RPMI media supplemented with 5% FCS, glutamine, antibiotic/antimycotic and sodium pyruvate. Total RNA was isolated from two U937 cultures, one treated with 5nM TPA for 48 hours and one grown in normal media as listed above, using the Rouche High Pure RNA Isolation Kit (cat# 1 828 665) as per manufacturers protocol. cDNA was then synthesized from the total RNA using GibcoBRL Superscriptll (Cat # 18064-022) reverse transcriptase as per manufacturers protocol. The resulting cDNA was used as a template for RT-PCR reactions using primer sets specific for PDE2 (forward: […], reverse: […]) or PDE5 (forward: […], reverse: […]). mRNA for PDE2 and 5 were both present in the untreated U937 cells. Upon treatment with TPA, the relative amounts of PDE2 mRNA increased 5 fold. Therefore, U937 cells treated with TPA and driven to differentiate into an activated macrophage like state have elevated levels of PDE2 mRNA (see FIG. 1).
The presence of PDE2 and PDE5 protein within U937 cells was confirmed by indirect immunofluorescence (IIF). U937 cells were cultured as above. Two U937 cultures, one grown in the presence of 5 nM TPA for 48 hours and one grown in normal media were processed. All cultures were collected by centrifugation (Shandon Cytospin, 2 minutes @ 600 rpm) onto poly-L lysine-coated slides and immediately fixed in fresh 3% paraformaldehyde buffered in PBS for 10 minutes. Adherent cultures were grown on coverslips and fixed as above. […]
The level of apoptosis in U937 cells was quantified by scoring 500 consecutive cells for the presence of active caspase 3. […]

[4] = 28 days, 50, 500 and 2000 mg/kg/day

**Q.** What does the source list for `CC1=C(CC(=O)NCc2ccccc2)c2cc(F)ccc2/C1=C\c1ccncc1` [Example 38, (Z)-5-fluoro-2-methyl-(4-pyridylidene)-3-(N-benzyl)indenylacetamide hydrochloride]?
**A.** macroscopic tissue changes at necropsy ([1]; 28 days): No macroscopic tissue changes; histopathological evaluation of tissues ([1]; 28 days, 500 mg/kg/day): one female at 500 mg/kg/day had increased mitotic figures in the thyroid gland; liver weights ([1]; 28 days, 2000 mg/kg/day): statistically significant increase in liver weights; thyroid weights ([1]; 28 days, 2000 mg/kg/day): statistically significant increases in thyroid weights; body weight changes, ophthalmoscopic examinations, hematological and blood chemistry values, urinalysis [1, 4]: unremarkable; clinical observations [1, 4]: no abnormal clinical observations; liver and thyroid weight increases at the lower doses ([1]; 28 days, 50 and 500 mg/kg/day): not statistically significant; histopathological evaluation of tissues ([1]; 28 days, small number of animals at 2000 mg/kg/day): traces of follicular cell hypertrophy, increased numbers of mitotic figures (suggestive of possible cell proliferation) in the thyroid gland and mild centrilobular hypertrophy in the liver; competition with cGMP in binding to the cGMP binding sites of GST-cGB-PDE5 [2]: does not bind to the cGMP-binding site of PDE5; induction of apoptosis (active caspase 3) [3]: undergoing apoptosis as reflected by the presence of active caspase 3; also recorded: causes the induction of apoptosis in the differentiated and non-differentiated U937 cell line
